Experimental data published in patent publication US20070015827A1, “Methods and compositions for treating ophthalmic conditions via serum retinol, serum retinol binding protein (RBP), and/or serum retinol-RBP modulation” (Sytera, Inc., priority 2005, published 2007).
Entries after “also recorded” stand apart in the source; their conditions may differ.

What was measured:
TTR binding to RBP = TTR binding to RBP (Homo sapiens, UniProt P02753); assay: Size exclusion study of TTR binding to RBP (Example 16); details: for binding of ligand-RBP to TTR: 10 μM RBP, 10 μM TTR, room temperature, 1 hour
Procedure: Apo-RBP at 10 μM was incubated with 50 μM of MPR in PBS at room temperature for 1 hour. 10 μM of TTR was then added to the solution, and the mixture was incubated for another hour at room temperature. 50 μl of the sample mixtures with and without TTR addition were analyzed by BioRad Bio-Sil SEC125 Gel Filtration Column (300×7.8 mm). In control experiments, atROL-RBP and atROL-RBP-TTR mixture were analyzed in the same manner.

mice = details: cited from earlier work
abca4 −/− mice = assay: A2E levels after withdrawal of chronic treatment; assay type: in vivo, mouse
Procedure: Latent Effects of HPR on Arresting A2E Accumulation —One feature identified during the HPR trials was a therapeutic latency effect following withdrawal of HPR. In these studies, chronic treatment of abca4 −/− mice (10 mg HPR/kg, i.p.) was stopped after 28 days. A2E levels were then measured 12, 28 and 42 days following the final HPR dose. […] This effect was not observed in animals treated with 13-cis retinoic acid, a result that may be due to the capacity of RPE cells to adapt to, and maintain, low steady-state retinoid levels. […] These findings indicate that high steady-state levels of competitive inhibitors such as 13-cis retinoic acid must be maintained for therapeutic efficacy.

abca4 null mutant mice = assay: A2E and A2PE-H2 in eyes after chronic treatment (HPLC); assay type: in vivo, mouse; details: 13-cis retinoic acid 40 mg/kg, chronic (1 month)
Procedure: Tissue Extraction. Eye samples were thawed on ice in 1 ml of PBS, pH 7.2 and homogenized by hand using a Duall glass-glass homogenizer. The sample was further homogenized following the addition of 1 ml chlorofomm/methanol (2:1, v/v). The sample was transferred to a boroscilicate tube and lipids were extracted into 4 mls of chloroform. The organic extract was washed with 3 mls PBS, pH 7.2 and the samples were then centrifuged at 3,000×g, 10 min. The choloroform phase was decanted and the aqueous phase was re-extracted with another 4 mls of chloroform. Following centrifugation, the chloroform phases were combined and the samples were taken to dryness under nitrogen gas. Samples residues were resuspended in 100 μl hexane and analyzed by HPLC as described below.
HPLC Analysis. Chromatographic separations were achieved on an Agilent Zorbax Rx-Sil Column (5 μm, 4.6×250 mm) using an Agilent 1100 series liquid chromatograph equipped with fluorescence and diode array detectors. The mobile phase (hexane/2-propanol/ethanol/25 mM KH2PO4, pH 7.0/acetic acid; 485/376/100/50/0.275, v/v) was delivered at 1 ml/min. Sample peak identification was made by comparison to retention time and absorbance spectra of authentic standards. Data are reported as peak fluorescence (L.U.) obtained from the fluorescence detector.
We initiated a one-month study to evaluate the effects of HPR on reduction of A2E and A2E precursors in abca4 null mutant mice. HPR was administered in DMSO (20 mg/kg, ip) to abca4 null mutant mice (BL6/129, aged 2 months) daily for a period of 28 days. Control age/strain matched mice received only the DMSO vehicle. Mice were sampled at 0, 14, and 28 days (n=3 per group), the eyes were enucleated and chloroform-soluble constituents (lipids, retinoids and lipid-retinoid conjugates) were extracted. Mice were sacrificed by cervical dislocation, the eyes were enucleated and individually snap frozen in cryo vials. The sample extracts were then analyzed by HPLC with on-line fluorescence detection. Results from this study show remarkable, early reductions in the A2E precursor, A2PE-H2, see FIG. 4a, and subsequent reductions in A2E, see FIG. 4b. […] A similar study may be undertaken to ascertain effects of HPR treatment on the electroretinographic and morphological phenotypes.
ABCA4 null mutant mice were given the indicated dose of HPR in DMSO or DMSO alone daily for 28 days (n=16 mice per treatment group). At study onset, mice in the 2.5 mg/kg group were 2 months of age, mice in the other treatment groups were 3 months of age. At the indicated times, representative mice were taken from each group (n =4) for analysis of A2E precursor compounds (see FIG. 10, A2PE-H2, panels A, C and E) and A2E (see FIG. 10, panels B, D and F). Eyes were enucleated, hemisected and lipid soluble components were extracted from the posterior pole by chloroform/methanol-water phase partitioning. Sample extracts were analyzed by LC. Identity of the eluted compounds was confirmed by UV-vis absorption spectroscopy and co-elution of sample peaks with authentic standards. Note: limitations in appropriately age and strain-matched mice in the 10 mg/kg group prevented analysis at the 14-day interval.
Extraction and Analysis of Retinoids and A2E. Steady-state levels of retinoids and A2E in eyecups of ABCA4−/− mice were determined following daily administration (28 days) of HPR (FIG. 12). Mice were sacrificed, the eyes enucleated, and the posterior portion of each eye was used for extraction of retinoids or A2E. Methodologies used for extraction of retinoids and A2E from eye tissue and HPLC analysis techniques have been described. See, e.g., Mata N L, Weng J, Travis G H. Biosynthesis of a major lipofuscin fluorophore in mice and humans with ABCR-mediated retinal and macular degeneration. Proc Natl Acad Sci USA. 2000; 97:7154-7159; Weng J, et al.; Cell. 1999;98:13-23; Mata N L, et al.; Invest. Ophthalmol. Visual Sci. 2001; 42:1685-1690. […]

[1] = tested on: wild-type and abca4 −/− mice; details: mouse, in vivo
Description: Delayed-dark adaptation can be further exacerbated by compounds which reduce the rate of rhodopsin regeneration (e.g., 13-cis retinoic acid). Although compounds such as HPR, which reduce total ocular retinoid levels, may also contribute to delayed-dark adaptation, the effect is less pronounced. This point was illustrated in studies which examined the effects of chronic (1 month) 13-cis retinoic acid or HPR administration on electrophysiology of the retina. […] Following exposure to a light source which bleaches approximately 40% of the visual chromophore, wild-type mice require ˜1 hour to regain dark sensitivity (1.0 value on the y-axis); untreated abca4 −/− mice require ˜3-4 hours. 13-cis retinoic acid treatment prolongs the time required to regain dark sensitivity to several hours. […] This finding is relevant for human patients affected with AMD.
Panels D-F of FIG. 9 are electrophysiological measurements of rod function (panel D), rod and cone function (panel E) and recovery from photobleaching (panel F).

Apo-RBP = Apo-RBP (Homo sapiens, UniProt P02753); assay: Fluorescence quenching study with Apo-RBP (Example 15); assay type: binding
Procedure: Apo-RBP at 0.5 μM was incubated with 0, 0.25, 0.5, 1 and 2 μM of MPR in PBS at room temperature for 1 hour, respectively. As controls, the same concentration of Apo-RBP was also incubated with 1 μM of HPR or 1 μM of atROL. All mixtures contained 0.2% Ethanol (v/v). The emission spectra were measured between 290 nm to 550 nm with excitation wavelength at 280 nm and 3 nm bandpass.

| Structure (SMILES) | binding of ligand-RBP to TTR (TTR binding to RBP) | 11-cis retinyl esters (mice; increased 13-cis retinoic acid) | levels of 11-cis retinal (mice; increased doses of 13-cis retinoic acid) | A2E levels after withdrawal (therapeutic latency effect) (abca4 −/− mice; chronic treatment (HPR 10 mg/kg i.p.) stopped after 28 days, measured 12, 28 and 42 days later) | photoreceptor function and ocular retinoid levels following withdrawal (abca4 −/− mice; mouse, in vivo) | reduction in A2E (abca4 null mutant mice) [%] | time required to regain dark sensitivity [1] | binding to RBP (360 nm absorbance in RBP elution peak) (TTR binding to RBP; 10 μM Apo-RBP, 50 μM MPR) | binding to RBP relative to HPR (Apo-RBP) | quenching of RBP fluorescence (Apo-RBP; 0.5 μM Apo-RBP, 0-2 μM MPR, PBS, room temperature, 1 hour) | degree of quenching compared with other RBP ligands (Apo-RBP; controls 1 μM HPR, 1 μM atROL) | MPR concentration at which quenching saturated (Apo-RBP; for 0.5 μM of RBP) [µM] |
| --- | --- | --- | --- | --- | --- | --- | --- | --- | --- | --- | --- | --- |
| CC1=C(/C=C/C(C)=C/C=C/C(C)=C/CO)C(C)(C)CCC1 [atROL, all-trans retinol] | binds to TTR |  |  |  |  |  |  |  |  |  |  |  |
| CC1=C(/C=C/C(C)=C/C=C/C(C)=C\C(=O)O)C(C)(C)CCC1 [13-cis retinoic acid] |  | increased dramatically | significantly reduced | not observed | quickly returned to baseline values | ~50 | several hours |  |  |  |  |  |
| COc1ccc(NC(=O)\C=C(C)/C=C/C=C(C)\C=C\C2=C(C)CCCC2(C)C)cc1 (stereo in doubt) [MPR, N-(4-methoxyphenyl)retinamide] | did not bind to TTR; also recorded: inhibits the binding of TTR to RBP |  |  |  |  |  |  | RBP binds to MPR | more weakly | concentration-dependent quenching | smaller than those by atROL and HPR | 1 |
